Data: patent US8734673B2, “Boron selective ionic liquids and polymeric ionic liquids, methods of making and methods of use thereof” (The University of Toledo, priority 2008, dated 2014)
Read-outs that look alike come from different tables or passages of the source.

How the values were obtained:
[1] = Miscibility/solubility in heptane and water
Text: The miscibility/solubility of all ionic liquids in both heptane and water are indicated as well.
The solubility behavior of all thirty-nine geminal dicationic ionic liquids in water and heptane also was explored.

[2] = Solvation interaction parameters by inverse gas-liquid chromatography (Abraham model); type: physicochemical
Method: The preparation of the capillary columns for inverse gas-liquid chromatographic analysis was performed using a previously described procedure. All capillary columns had efficiencies between 2100 to 2500 plates/meter. Characterization of the capillary columns and probe molecule descriptions are listed in supplemental information. Multiple linear regression analysis (MLRA) and statistical calculations were performed using the program Analyse-it (Microsoft, USA).
Solvation Characteristics. We have previously reported that the Abraham solvation model, a linear free energy approach that utilizes inverse gas-liquid chromatography to describe the solvation properties of a liquid, can be used to characterize room temperature ionic liquids. Described by equation 1, the model provides the so-called “interaction parameters” (r, s, a, b, l) by using multiple linear regression analysis to fit the retention factor (k, determined chromatographically) to the solute descriptors (R2, π2^Hα2H, β2^H, log L^16) for a wide variety of probe solute molecules. […]
Previously we characterized a large number of room temperature ionic liquids in terms of multiple solvation interactions using the solvation parameter model, shown in equation log k=c+rR2+sπ2^H+aα2^H+bβ2^H+l log L^16 [3] This approach utilizes inverse gas-liquid chromatography and allows the use of a large number of probe molecules to deconvolute solute retention in terms of the type and magnitude of individual solvation interactions. The solute descriptors (R2, π2^H, α2^H, .β2^H, log L^16) from Equation 3 are obtained from the literature for many probe molecules containing a variety of functional groups. The retention factor is determined chromatographically. The solute descriptors and retention factors are subjected to multiple linear regression analysis to obtain the interaction parameter coefficients (r, s, a, b, l), which ultimately characterize the stationary phase: r is the ability of the diionic liquid containing-stationary phase to interact with .π0 and n electrons of the solute, s is a measure of the dipolarity/polarizability of the diionic liquid containing-stationary phase, a defines the diionic liquid containing-stationary phase hydrogen bond basicity, b is a measure of the hydrogen bond acidity, and l refers to the ability of the diionic liquid containing-stationary phase to separate adjacent members of a homologous series.
Test solutes used to determine interaction parameters and solvation thermodynamics were dissolved in dichloromethane. […] Split injection and flame ionization detection were utilized with injection and detection temperatures of 250° C. Helium was used as the carrier gas with a column inlet pressure of 3.1 psi and flow rate of 1.0 mL/min. Methane was used to determine the dead volume of the column. Multiple linear regression analysis and statistical calculations were performed using the program Analyze-it (Microsoft).

[3] = values taken from reference 31, cited from earlier work

Compound	Miscibility with Heptane [1]	Miscibility with Water [1]	Interaction parameter a (hydrogen bond basicity) ([2]; 40° C.)	Interaction parameter b (hydrogen bond acidity) ([2]; 40° C.)	Interaction parameter c ([2]; 40° C.)	Interaction parameter l (dispersion forces) ([2]; 40° C.)	Interaction parameter r (interaction via nonbonding and π-electrons) ([2]; 40° C.)	Interaction parameter s (dipolarity/polarizability) ([2]; 40° C.)	Interaction parameter a (hydrogen bond basicity) ([2]; 70° C.)	Interaction parameter b (hydrogen bond acidity) ([2]; 70° C.)	Interaction parameter c ([2]; 70° C.)	Interaction parameter l (dispersion forces) ([2]; 70° C.)	Interaction parameter r (interaction via nonbonding and π-electrons) ([2]; 70° C.)	Interaction parameter s (dipolarity/polarizability) ([2]; 70° C.)	Interaction parameter a (hydrogen bond basicity) ([2]; 100° C.)	Interaction parameter b (hydrogen bond acidity) ([2]; 100° C.)	Interaction parameter c ([2]; 100° C.)	Interaction parameter l (dispersion forces) ([2]; 100° C.)	Interaction parameter r (interaction via nonbonding and π-electrons) ([2]; 100° C.)	Interaction parameter s (dipolarity/polarizability) ([2]; 100° C.)	other results
1,3-di(2,3-dimethylimidaolium)propane di-bromide [C3(m2im)2-Br]	Immiscible	Miscible	–	–	–	–	–	–	–	–	–	–	–	–	–	–	–	–	–	–	–
1,3-di(2,3-dimethylimidazolium)propane di-hexafluorophosphate [C3(m2im)2-PF6]	Immiscible	Immiscible	–	–	–	–	–	–	–	–	–	–	–	–	–	–	–	–	–	–	–
CCCCn1cc[n+](C)c1.O=S(=O)([N-]S(=O)(=O)C(F)(F)F)C(F)(F)F [BMIM-NTf2, 1-butyl-3-methylimidazolium bis[(trifluoromethylsulfonyl)imide], reference compound]	–	–	2.02	0.36	−2.87	0.63	0	1.89	1.75	0.38	−3.03	0.56	0	1.67	1.55	0.24	−3.13	0.49	0	1.60	–
CCCC[N+]1(C)CCCC1.O=S(=O)([N-]S(=O)(=O)C(F)(F)F)C(F)(F)F [BMPY-NTf2, 1-butyl-1-methylpyrrolidinium bis[(trifluoromethylsulfonyl)imide]]	–	–	–	–	–	–	–	–	–	–	–	–	–	–	–	–	–	–	–	–	Interaction parameter a (hydrogen bond basicity) ([3]; 40° C.): 2.08; Interaction parameter b (hydrogen bond acidity) ([3]; 40° C.): 0.16; Interaction parameter c ([3]; 40° C.): −2.78; Interaction parameter l (dispersion forces) ([3]; 40° C.): 0.68; Interaction parameter r (interaction via nonbonding and π-electrons) ([3]; 40° C.): 0; Interaction parameter s (dipolarity/polarizability) ([3]; 40° C.): 1.69; Interaction parameter a (hydrogen bond basicity) ([3]; 70° C.): 1.78; Interaction parameter b (hydrogen bond acidity) ([3]; 70° C.): 0; Interaction parameter c ([3]; 70° C.): −2.80; Interaction parameter l (dispersion forces) ([3]; 70° C.): 0.56; Interaction parameter r (interaction via nonbonding and π-electrons) ([3]; 70° C.): 0; Interaction parameter s (dipolarity/polarizability) ([3]; 70° C.): 1.53; Interaction parameter a (hydrogen bond basicity) ([3]; 100° C.): 1.55; Interaction parameter b (hydrogen bond acidity) ([3]; 100° C.): 0; Interaction parameter c ([3]; 100° C.): −2.92; Interaction parameter l (dispersion forces) ([3]; 100° C.): 0.48; Interaction parameter r (interaction via nonbonding and π-electrons) ([3]; 100° C.): 0; Interaction parameter s (dipolarity/polarizability) ([3]; 100° C.): 1.44
Cn1cc[n+](CCC[n+]2ccn(C)c2)c1.F[B-](F)(F)F.F[B-](F)(F)F [C3(mim)2-BF4, 1,3-di(3-methylimidazolium)propane di-tetrafluoroborate]	Immiscible	Miscible	–	–	–	–	–	–	–	–	–	–	–	–	–	–	–	–	–	–	–
Cn1cc[n+](CCC[n+]2ccn(C)c2)c1.[Br-].[Br-] [C3(mim)2-Br, 1,3-di(3-methylimidazolium)propane di-bromide]	Immiscible	Miscible	–	–	–	–	–	–	–	–	–	–	–	–	–	–	–	–	–	–	–
Cn1cc[n+](CCC[n+]2ccn(C)c2)c1.F[P-](F)(F)(F)(F)F.F[P-](F)(F)(F)(F)F [C3(mim)2-PF6, 1,3-di(3-methylimidazolium)propane di-hexafluorophosphate]	Immiscible	Immiscible	–	–	–	–	–	–	–	–	–	–	–	–	–	–	–	–	–	–	–
C[N+]1(CCC[N+]2(C)CCCC2)CCCC1.F[P-](F)(F)(F)(F)F.F[P-](F)(F)(F)(F)F [C3(mpy)2-PF6, 1,3-di(methylpyrrolidinium)propane di-hexafluorophosphate]	Immiscible	Immiscible	–	–	–	–	–	–	–	–	–	–	–	–	–	–	–	–	–	–	–
C[n+]1ccn(CCCCn2cc[n+](C)c2)c1.O=S(=O)([N-]S(=O)(=O)C(F)(F)F)C(F)(F)F.O=S(=O)([N-]S(=O)(=O)C(F)(F)F)C(F)(F)F [C4(mim)2-NTf2]	–	–	2.11	0.50	−2.94	0.56	0.25	2.01	1.77	0.45	−2.91	0.44	0.22	1.78	1.57	0.33	−3.06	0.37	0.20	1.69	–
Cn1cc[n+](CCCCCCCCC[n+]2ccn(C)c2)c1.O=S(=O)([N-]S(=O)(=O)C(F)(F)F)C(F)(F)F.O=S(=O)([N-]S(=O)(=O)C(F)(F)F)C(F)(F)F [C9(mim)2-NTf2, 1,9-di(3-methylimidazolium)nonane di-bis[(trifluoromethyl)sulfonyl]imidate]	–	–	1.83	0.47	−2.86	0.62	0.16	1.81	1.75	0.20	−2.95	0.51	0.11	1.76	1.50	0.15	−3.06	0.43	0.11	1.64	–
[Br-].[Br-].c1ccc(Cn2cc[n+](CCCCCCCCCCCC[n+]3ccn(Cc4ccccc4)c3)c2)cc1 [C12(benzim)2-Br, 1,12-di(3-benzylimidazolium)dodecane di-bromide]	–	–	–	–	–	–	–	–	–	–	–	–	–	–	–	–	–	–	–	–	Miscibility with Water ([1]; listed as 28): insoluble in water
O=S(=O)([N-]S(=O)(=O)C(F)(F)F)C(F)(F)F.O=S(=O)([N-]S(=O)(=O)C(F)(F)F)C(F)(F)F.c1ccc(Cn2cc[n+](CCCCCCCCCCCC[n+]3ccn(Cc4ccccc4)c3)c2)cc1 [C12(benzim)2-NTf2, 1,12-di(3-benzylimidazolium)dodecane di-bis[(trifluoromethyl)sulfonyl]imidate]	–	–	1.96	0.84	−2.94	0.66	0.11	1.65	1.75	0.57	−3.07	0.56	0.07	1.62	1.44	0.52	−3.12	0.46	0	1.47	–
